Here are results for one compound from patent US20240100065A1, “METHODS FOR TREATING RECEPTOR-INTERACTING PROTEIN KINASE 1-MEDIATED DISEASES” (Genzyme Corporation, priority 2022, published 2024).

Series [1] can be described thus: Nonhuman primate toxicology study (NOAEL exposure). Format: in vivo. Conditions: 20 mg BID vs nonhuman primate study.
Series [2] deals with T1, pS166-RIPK1 (Homo sapiens, UniProt Q13546).
T1 construct: endogenous in cells
T1 sequence (Q13546 1-671): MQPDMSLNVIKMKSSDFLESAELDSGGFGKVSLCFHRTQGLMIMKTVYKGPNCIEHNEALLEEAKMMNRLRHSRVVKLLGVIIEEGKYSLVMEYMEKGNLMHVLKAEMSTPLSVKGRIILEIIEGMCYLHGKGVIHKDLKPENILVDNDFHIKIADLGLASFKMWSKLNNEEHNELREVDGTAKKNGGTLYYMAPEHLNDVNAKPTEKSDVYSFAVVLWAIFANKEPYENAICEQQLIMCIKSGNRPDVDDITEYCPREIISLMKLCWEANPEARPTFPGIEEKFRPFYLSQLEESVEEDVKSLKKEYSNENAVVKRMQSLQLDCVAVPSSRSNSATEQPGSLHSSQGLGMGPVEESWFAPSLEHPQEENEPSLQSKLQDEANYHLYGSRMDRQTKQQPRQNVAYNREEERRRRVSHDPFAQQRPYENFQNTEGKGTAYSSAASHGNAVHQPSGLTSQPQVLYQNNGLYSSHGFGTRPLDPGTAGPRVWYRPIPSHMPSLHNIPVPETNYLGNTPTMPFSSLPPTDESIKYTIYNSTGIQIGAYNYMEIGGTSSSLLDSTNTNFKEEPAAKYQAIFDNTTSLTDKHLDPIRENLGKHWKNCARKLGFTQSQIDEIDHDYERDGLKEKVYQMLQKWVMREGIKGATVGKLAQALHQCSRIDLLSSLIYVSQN
Briefly: pS166-RIPK1 inhibition in vitro in microglia. Format: cell-based.

One may read the EC90 as the point of the concentration-response curve where the effect stands at 90%. Turning to `CC(C)(C(=O)N1CCOc2c(C#N)cncc2C1)C(F)F` [Compound 1, 4-(3,3-difluoro-2,2-dimethyl-propanoyl)-3,5-dihydro-2H-pyrido[3,4-f] [1,4]oxazepine-9-carbonitrile], in series [1], the “Safety margin relative to the NOAEL exposure” value is recorded as 10 fold. This compound showed an EC90 in series [2] of 0.064 µM.
